Where “and” joins values, the source holds several entries; their conditions need not be identical. Identical values can stand only once. Toxic doses and inconclusive results are not listed. The calls were made as follows: active = survival T/C of 150% or more; inactive = T/C below 125% in these data.
System: CD2F1 mice, L1210 leukemia ip, survival T/C
Assay: NCI In Vivo Anticancer Drug Screen. Data for tumor model L1210 Leukemia (intraperitoneal) in CD2F1 (CDF1) mice
Details: higher = longer survival
Summary of the method: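 Tumor-bearing mice (transplanted tumor) were split into treated and vehicle control groups, and the measured endpoint of each treated group was divided by that of its vehicle controls.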

[1] = endpoint: mean survival time, dose: 100.0 mg/kg/injection, schedule: Q01DX009 (ip), vehicle: saline with Tween-80
[2] = endpoint: mean survival time, dose: 100.0 mg/kg/injection, schedule: Q04DX003 (ip), vehicle: saline with Tween-80
[3] = endpoint: mean survival time, dose: 200.0 mg/kg/injection, schedule: Q04DX003 (ip), vehicle: saline with Tween-80
[4] = endpoint: mean survival time, dose: 400.0 mg/kg/injection, schedule: Q04DX003 (ip), vehicle: saline with Tween-80
[5] = endpoint: mean survival time, dose: 200.0 mg/kg/injection, schedule: Q01DX009 (ip), vehicle: saline with Tween-80
[6] = endpoint: mean survival time, dose: 400.0 mg/kg/injection, schedule: Q01DX009 (ip), vehicle: saline with Tween-80

Measured: T/C

ClCCN(CCCl)c1ccc(CNCCCNCc2ccc(N(CCCl)CCCl)cc2)cc1
inactive: endpoint: mean survival time, dose: 1.25 mg/kg/injection, schedule: Q01DX009 (ip), vehicle: saline sonified 118 % of control | endpoint: mean survival time, dose: 2.5 mg/kg/injection, schedule: Q01DX009 (ip), vehicle: saline sonified 118 % of control | endpoint: mean survival time, dose: 3.3 mg/kg/injection, schedule: Q01DX009 (ip), vehicle: saline sonified 117 % of control | endpoint: mean survival time, dose: 5.0 mg/kg/injection, schedule: Q01DX009 (ip), vehicle: saline sonified 117 % of control | endpoint: mean survival time, dose: 7.5 mg/kg/injection, schedule: Q01DX009 (ip), vehicle: saline sonified 121 % of control | endpoint: mean survival time, dose: 10.0 mg/kg/injection, schedule: Q04DX003 (ip), vehicle: saline with Tween-80 120 % of control | endpoint: mean survival time, dose: 20.0 mg/kg/injection, schedule: Q04DX003 (ip), vehicle: saline with Tween-80 121 % of control | endpoint: mean survival time, dose: 40.0 mg/kg/injection, schedule: Q04DX003 (ip), vehicle: saline with Tween-80 120 % of control

CCOC(=O)C(NCc1ccccc1)C(=O)OCC
inactive: endpoint: mean survival time, dose: 12.5 mg/kg/injection, schedule: Q01DX009 (ip), vehicle: water 96 % of control | endpoint: mean survival time, dose: 25.0 mg/kg/injection, schedule: Q01DX009 (ip), vehicle: water 98 % of control | endpoint: mean survival time, dose: 50.0 mg/kg/injection, schedule: Q01DX009 (ip), vehicle: water 101 % of control | endpoint: mean survival time, dose: 100.0 mg/kg/injection, schedule: Q01DX009 (ip), vehicle: water 93 % of control

Cc1ccc(O[Si](C)(C)C)cc1
inactive: [1] 100 % of control | [2] 103 % of control | [3] 87 % of control | [4] 89 % of control

[Br][Ni][Br].[NH-]CC[NH-].[NH-]CC[NH-]
inactive: endpoint: mean survival time, dose: 25.0 mg/kg/injection, schedule: Q04DX002 (ip), vehicle: saline with Tween-80 104 % of control | endpoint: mean survival time, dose: 50.0 mg/kg/injection, schedule: Q04DX002 (ip), vehicle: saline with Tween-80 110 % of control

CCCCNc1ncnc2c1cnn2C
inactive: endpoint: mean survival time, dose: 4.0 mg/kg/injection, schedule: Q01DX Z (ip), vehicle: saline 97 % of control | endpoint: mean survival time, dose: 8.0 mg/kg/injection, schedule: Q01DX Z (ip), vehicle: saline 96 % of control | endpoint: mean survival time, dose: 12.5 mg/kg/injection, schedule: Q01DX005 (ip), vehicle: saline with Tween-80 94 % of control | endpoint: mean survival time, dose: 16.0 mg/kg/injection, schedule: Q01DX Z (ip), vehicle: saline 100 % of control | endpoint: mean survival time, dose: 25.0 mg/kg/injection, schedule: Q01DX005 (ip), vehicle: saline with Tween-80 100 % of control | endpoint: mean survival time, dose: 31.0 mg/kg/injection, schedule: Q01DX Z (ip), vehicle: saline 103 % of control | endpoint: mean survival time, dose: 50.0 mg/kg/injection, schedule: Q01DX005 (ip), vehicle: saline with Tween-80 104 % of control | endpoint: mean survival time, dose: 100.0 mg/kg/injection, schedule: Q01DX005 (ip), vehicle: saline with Tween-80 98 % of control | endpoint: mean survival time, dose: 200.0 mg/kg/injection, schedule: Q01DX005 (ip), vehicle: saline with Tween-80 100 % of control | endpoint: median survival time, dose: 31.3 mg/kg/injection, schedule: Q01DX009 (ip), vehicle: saline 100 % of control | endpoint: median survival time, dose: 62.5 mg/kg/injection, schedule: Q01DX009 (ip), vehicle: saline 100 % of control | endpoint: median survival time, dose: 125.0 mg/kg/injection, schedule: Q01DX009 (ip), vehicle: saline 105 % of control

Clc1nc(Cl)nc(-c2cn(-c3ccccc3)c3ccccc23)n1
inactive: [1] 95 % of control | [2] 89 % of control | [5] 95 % of control | [3] 97 % of control | [6] 96 % of control | [4] 98 % of control

CC1(C)N=C(N)N=C(N)N1c1ccc(OCC(=O)Nc2ccc(S(=O)(=O)F)cc2)cc1
inactive: endpoint: mean survival time, dose: 50.0 mg/kg/injection, schedule: Q01DX009 (ip), vehicle: saline 111 % of control | endpoint: mean survival time, dose: 100.0 mg/kg/injection, schedule: Q01DX009 (ip), vehicle: saline 109 % of control | endpoint: mean survival time, dose: 200.0 mg/kg/injection, schedule: Q01DX009 (ip), vehicle: saline 115 % of control | endpoint: mean survival time, dose: 300.0 mg/kg/injection, schedule: Q01DX009 (ip), vehicle: saline 115 % of control | endpoint: mean survival time, dose: 400.0 mg/kg/injection, schedule: Q01DX009 (ip), vehicle: saline 121 % of control

CC(OC1OC(C(=O)O)C(O)C(O)C1O)c1ccccc1 (centres undefined)
inactive: endpoint: mean survival time, dose: 100.0 mg/kg/injection, schedule: Q04DX003 (ip), vehicle: saline 98 % of control | endpoint: mean survival time, dose: 200.0 mg/kg/injection, schedule: Q04DX003 (ip), vehicle: saline 98 % of control | endpoint: mean survival time, dose: 400.0 mg/kg/injection, schedule: Q04DX003 (ip), vehicle: saline 93 % of control

O=S(=O)(O)c1cccc2ncccc12
inactive: endpoint: mean survival time, dose: 100.0 mg/kg/injection, schedule: Q01DX001 (ip), vehicle: Klucel (hydroxypropylcellulose) (HPC) 113 % of control | endpoint: mean survival time, dose: 200.0 mg/kg/injection, schedule: Q01DX001 (ip), vehicle: Klucel (hydroxypropylcellulose) (HPC) 92 % of control | endpoint: mean survival time, dose: 400.0 mg/kg/injection, schedule: Q01DX001 (ip), vehicle: Klucel (hydroxypropylcellulose) (HPC) 95 % of control

CCOC(=O)/C=C/SCCCC(=O)O
inactive: endpoint: mean survival time, dose: 100.0 mg/kg/injection, schedule: Q01DX001 (ip), vehicle: saline with Tween-80 100 % of control | endpoint: mean survival time, dose: 200.0 mg/kg/injection, schedule: Q01DX001 (ip), vehicle: saline with Tween-80 105 % of control | endpoint: mean survival time, dose: 400.0 mg/kg/injection, schedule: Q01DX001 (ip), vehicle: saline with Tween-80 95 % of control

BrC(Br)(Br)c1ccc2ccccc2n1
inactive: [1] 96 % of control | [5] 94 % of control | [6] 102 % of control

O=C(O)C1=CCCc2ccc(F)cc21
inactive: endpoint: median survival time, dose: 50.0 mg/kg/injection, schedule: Q04DX002 (ip), vehicle: saline with Tween-80 100 % of control | endpoint: median survival time, dose: 100.0 mg/kg/injection, schedule: Q04DX002 (ip), vehicle: saline with Tween-80 100 % of control | endpoint: median survival time, dose: 200.0 mg/kg/injection, schedule: Q04DX002 (ip), vehicle: saline with Tween-80 88 % of control | endpoint: median survival time, dose: 400.0 mg/kg/injection, schedule: Q04DX002 (ip), vehicle: saline with Tween-80 111 % of control

CC1OC(OC2C(OC3CCC4(C)C(CCC5(C)C4CC=C4C6CC(C)(C)CCC6(CO)C(O)CC45C)C3(C)C)OC(CO)C(OC3OC(COC4OC(CO)C(O)C(O)C4O)C(O)C(O)C3O)C2O)C(O)C(O)C1O (centres undefined)
inactive: endpoint: mean survival time, dose: 50.0 mg/kg/injection, schedule: Q01DX001 (sc), vehicle: steriod suspending solution 103 % of control

CCOC(=O)C(=O)Cc1cc(=O)cc(C)o1
inactive: [1] 95 % of control | [5] 92 % of control | [6] 93 % of control

Cc1ccccc1OS(=O)(=O)c1cccc([N+](=O)[O-])c1
inactive: [2] 103 % of control | [3] 100 % of control | [4] 100 % of control

Cc1c2ccc3ccccc3c2c[n+]2ccccc12
inactive: endpoint: mean survival time, dose: 1.25 mg/kg/injection, schedule: Q01DX009 (ip), vehicle: Klucel (hydroxypropylcellulose) (HPC) 87 % of control and 102 % of control | endpoint: mean survival time, dose: 2.5 mg/kg/injection, schedule: Q01DX009 (ip), vehicle: Klucel (hydroxypropylcellulose) (HPC) 98 % of control and 102 % of control | endpoint: mean survival time, dose: 5.0 mg/kg/injection, schedule: Q01DX009 (ip), vehicle: Klucel (hydroxypropylcellulose) (HPC) 100 % of control and 105 % of control | endpoint: mean survival time, dose: 10.0 mg/kg/injection, schedule: Q01DX009 (ip), vehicle: Klucel (hydroxypropylcellulose) (HPC) 104 % of control and 110 % of control | endpoint: mean survival time, dose: 20.0 mg/kg/injection, schedule: Q01DX009 (ip), vehicle: Klucel (hydroxypropylcellulose) (HPC) 105 % of control

CCCNC(=O)C1C2CCC(CC2)C1C(=O)NCCC (centres undefined)
inactive: [2] 98 % of control | [3] 98 % of control | [4] 95 % of control

CCC(=O)Nc1cccc(OS(=O)(=O)N(C)C)c1
inactive: [3] 97 % of control | [4] 94 % of control

Source: PubChem BioAssay AID256 (DTP/NCI, 2004)
